# Experiments:
# Type in all cases: in vivo
# SD rat = assay: Single administration toxicity test in rat (lethal dose); settings: observed for 14 days
# Description: (§1) (E)-3-[2-(5,6-Dimethoxy-3-methyl-1,4-benzoquinonyl)]-2-nonylpropenoic acid was used as a test compound.
# beagle = assay: Single administration toxicity test in beagle (lethal dose); settings: p.o., observed for 21 days
# Description: as §1
# KK-Ay/Ta mice [1] = assay: Blood sugar level in type-II diabetes model mice, oral dosing twice daily for 14 days; settings: for Blood sugar level: male KK-Ay/Ta mice, average ± standard error, N=6
# Description: (§2) Use was made of 22-week old male KK-Ay/Ta mice (type-II diabetes model mice available from Clea Japan Inc.). Restricted feeding was effected such that the animals were starved from 9:00 a.m. to 5:00 p.m. daily through the experimental period.
# (§3) (E)-3-[2-(5,6-Dimethoxy-3-methyl-1,4-benzoquinonyl)]-2-nonylpropenoic acid as a representative example of the compounds of the present invention was suspended in 0.5% methylcellulose (MC) and orally administered twice 9:00 a.m. and 5:00 p.m. daily for 14 days in accordance with the following schedule.
# (§4) The 0.5% methylcellulose (MC) was administered to a control group in the same manner as above.
# (§5) All blood specimens were collected from the cardal veins, and blood sugar and blood insulin levels were measured on the day preceding the administration (day 0) and 3 days (day 3), 7 days (day 7), 10 days (day 10) and 14 days (day 14) after the administration. Hemoglobin AIc (HbAIc) was measured on day 0 and day 14. The measurements of blood sugar level, blood insulin level and HbAIc were conducted by the use of Fuji Dry-Chem System 5500 (manufactured by Fuji Medical Systems Co., Ltd.), insulin measuring kit (EIA sandwich method, manufactured by Morinaga Seikagaku Kenkyusho) and DCA 2000 System (manufactured by Bayer Diagnosics), respectively. The results are expressed by the average ± standard error with respect to each group. The significant difference test as compared with the control group was performed by the Student t-test.
# KK-Ay/Ta mice [2] = assay: Hemoglobin AIc (HbAIc) in type-II diabetes model mice, oral dosing twice daily for 14 days; settings: 300 mg/Kg/day p.o. for 14 days, KK-Ay/Ta mice (Table 3)
# Description: as §2, §3, §4
# as §5, with “The significant difference test as compared with the control group was performed by the Student t-test.” left out
compound,measurement,setting,value
"CCCCCCCCC/C(=C\C1=C(C)C(=O)C(OC)=C(OC)C1=O)C(=O)O [invention compd., (E)-3-[2-(5,6-Dimethoxy-3-methyl-1,4-benzoquinonyl)]-2-nonylpropenoic acid]",Lethal dose,SD rat; i.v.,>60 mg/kg
same,Lethal dose,SD rat; p.o.,2000 mg/kg
same,Lethal dose,beagle,>400 mg/kg
same,hypoglycemic effect (in words),"KK-Ay/Ta mice [1]; 300 mg/Kg/day p.o. for 14 days, KK-Ay/Ta mice, compared with the control group (Table 2, Fig. 1)",excellent hypoglycemic effect
same,Blood sugar level,"KK-Ay/Ta mice [1]; Day 0 (day preceding the administration, baseline)",465.7 ± 21.51 mg/dL
same,Blood sugar level,"KK-Ay/Ta mice [1]; Day 0 (day preceding the administration, baseline), listed as the compound of the present invention",465.7 ± 21.51 mg/dL
same,Blood sugar level,"KK-Ay/Ta mice [1]; Day 3, 300 mg/Kg/day p.o. (100 a.m. + 200 p.m.), 300 mg/kg/day",380.8 ± 52.42 mg/dL
same,Blood sugar level,"KK-Ay/Ta mice [1]; Day 3, 300 mg/Kg/day p.o. (100 a.m. + 200 p.m.), listed as the compound of the present invention, 300 mg/kg/day",380.8 ± 52.42 mg/dL
same,Blood sugar level,"KK-Ay/Ta mice [1]; Day 7, 300 mg/Kg/day p.o. (100 a.m. + 200 p.m.), 300 mg/kg/day",319.8 ± 27.49 mg/dL
same,Blood sugar level,"KK-Ay/Ta mice [1]; Day 7, 300 mg/Kg/day p.o. (100 a.m. + 200 p.m.), listed as the compound of the present invention, 300 mg/kg/day",319.8 ± 27.49 mg/dL
same,Blood sugar level,"KK-Ay/Ta mice [1]; Day 10, 300 mg/Kg/day p.o. (100 a.m. + 200 p.m.), 300 mg/kg/day",334.3 ± 33.75 mg/dL
same,Blood sugar level,"KK-Ay/Ta mice [1]; Day 10, 300 mg/Kg/day p.o. (100 a.m. + 200 p.m.), listed as the compound of the present invention, 300 mg/kg/day",334.3 ± 33.75 mg/dL
same,Blood sugar level,"KK-Ay/Ta mice [1]; Day 14, 300 mg/Kg/day p.o. (100 a.m. + 200 p.m.), 300 mg/kg/day",280.2 ± 37.31 mg/dL
same,Blood sugar level,"KK-Ay/Ta mice [1]; Day 14, 300 mg/Kg/day p.o. (100 a.m. + 200 p.m.), listed as the compound of the present invention, 300 mg/kg/day",280.2 ± 37.31 mg/dL
same,HbAIc change as compared with the control group (in words),KK-Ay/Ta mice [2],decrease trend
